The record followed here is ChEMBL document CHEMBL4513161, “CO-ADD screening of MMV (CH) - Pandemic Response Box” (2021).

In brackets after ≈: the same amount, converted by molar mass.

Test [1] relates to HEK293. In words: cells. The class given is functional, Homo sapiens, ATCC CRL1573. As to conditions: Homo sapiens, ATCC CRL1573, HEK293; ASSAY_TEST Inhibition of Cell Viability; detection method Resazurin; Fluorescence (ex560/em590); MEDIA DMEM with 10% FBS; plate type 384well; TC; CORNING #3712; time 18 hr; read-out: CC50.
Test [2] concerns Escherichia coli. In words: microbe, parasite or virus in culture. To be noted: ATCC 25922, 18 h, ASSAY_TEST Inhibition of Bacterial Growth, detection method Absorption (OD600), MEDIA CAMHB, plate type 384well, NBS, CORNING #3640.
Description: Antibacterial activity against Escherichia coli ATCC 25922 (CO-ADD:GN_001); MIC in CAMBH media using NBS plates, by OD(600)
The test system of test [3] is Pseudomonas aeruginosa. In words: Antibacterial activity against Pseudomonas aeruginosa PAO397 [PAO1 d(mexAB-oprM) d(mexCD-oprJ) d(mexEF-oprN) d(mexJKL) d(mexXY) d(opmH)] (CO-ADD:GN_211); MIC in CAMBH media using NBS plates, by OD(600). To be noted: ASSAY_TEST Inhibition of Bacterial Growth, detection method Absorption (OD600), MEDIA CAMHB, plate type 384well, CORNING #3640, time 18 hr. The class given is functional.

In test [4] the test system is Cryptococcus neoformans.
Description: Antifungal activity against Cryptococcus neoformans H99 ATCC 208821 (CO-ADD:FG_002); MIC in YNB media using NBS plates, by Resazurin OD(600-570)
For test [5], the system named is Klebsiella pneumoniae. In words: microbe, parasite or virus in culture. As to conditions: ATCC 700603, 18 h, ASSAY_TEST Inhibition of Bacterial Growth, detection method Absorption (OD600), MEDIA CAMHB, plate type 384well, NBS, CORNING #3640.
Description: Antibacterial activity against Klebsiella pneumoniae MDR ATCC 70063 (CO-ADD:GN_003); MIC in CAMBH media using NBS plates, by OD(600)
The subject of test [6] is Staphylococcus aureus. In words: microbe, parasite or virus in culture. To be noted: ATCC 43300, 18 h, ASSAY_TEST Inhibition of Bacterial Growth, detection method Absorption (OD600), MEDIA CAMHB, plate type 384well, NBS, CORNING #3640.
Description: Antibacterial activity against Staphylococcus aureus MRSA ATCC 43300 (CO-ADD:GP_020); MIC in CAMBH media, using NBS plates, by OD(600)
Test [7] has as its system Acinetobacter baumannii. In words: microbe, parasite or virus in culture. To be noted: ATCC 19606, 18 h, ASSAY_TEST Inhibition of Bacterial Growth, detection method Absorption (OD600), MEDIA CAMHB, plate type 384well, NBS, CORNING #3640.
Description: Antibacterial activity against Acinetobacter baumannii ATCC 19606 (CO-ADD:GN_034); MIC in CAMBH media using NBS plates, by OD600
Test [8] concerns Pseudomonas aeruginosa. In words: microbe, parasite or virus in culture. As to conditions: ATCC 27853, 18 h, ASSAY_TEST Inhibition of Bacterial Growth, detection method Absorption (OD600), MEDIA CAMHB, plate type 384well, NBS, CORNING #3640.
Description: Antibacterial activity against Pseudomonas aeruginosa ATCC 27853 (CO-ADD:GN_042); MIC in CAMBH media using NBS plates, by OD(600)
Test [9] has as its system Candida albicans. In words: microbe, parasite or virus in culture. As to conditions: ATCC 90028, ASSAY_TEST Inhibition of Fungal Growth, detection method Absorption (OD530), plate type 384well, NBS, CORNING #3640.
Description: Antifungal activity against Candida albicans ATCC 90028 (CO-ADD:FG_001); MIC in YNB media using NBS plates, by OD630

With `CC(C)Cn1c(=O)n(C)c(=O)c2c(-c3cncn3C)n(Cc3cccc4ccccc34)nc21`, in test [1], the CC50 was above 20 µM. The MIC in test [2], in test [3], in test [4], in [5], in test [6] and in test [7] was above 20 µM in each case. Further, the MIC in [8] and in [9] was above 20 µM each time.

Regarding `CCCCCCCCCN1C[C@@H](O)[C@H](O)[C@@H](O)[C@@H]1CO`, the CC50 in test [1] is above 20 µM. Besides, the MIC in test [2], in test [3], in test [4], in test [5], in test [6] and in [7] was above 20 µM in each case. Further, the MIC in [8] and in [9] was above 20 µM each time.

As for `NC(=O)c1cnc2ccc(S(=O)(=O)c3ccccc3)cc2c1Nc1ccc(O)cc1`, the CC50 in test [1] is above 20 µM. The MIC in test [2], in [3], in [4], in [5], in test [6] and in test [7] was above 20 µM throughout. The MIC in test [8] and in test [9] was above 20 µM throughout.

As for `C=C[C@]1(C)C[C@@H](OC(=O)CS[C@@H]2C[C@H]3CC[C@@H](C2)N3C)[C@]2(C)[C@H](C)CC[C@]3(CCC(=O)[C@H]32)[C@@H](C)[C@@H]1O` [RETAPAMULIN], the CC50 in [1] was above 20 µM. In addition, the MIC in test [2] was above 20 µM; in test [3], 2.5 µM (≈ 1.29 µg/mL); in test [4], above 20 µM; in test [5] it was above 20 µM; in test [6] it was at most 0.156 µM; in [7], above 20 µM. Also, the MIC in [8] and in test [9] was above 20 µM throughout.

As to `O=C(O)CCNC(=O)c1ccccc1` [BETAMIPRON], the CC50 in test [1] was above 20 µM. Further, the MIC in [2], in [3], in test [4], in test [5], in [6] and in [7] was above 20 µM each time. In addition, the MIC in test [8] and in test [9] was above 20 µM throughout.

As to `Cc1cc(CCCOc2c(C)cc(-c3noc(C(F)(F)F)n3)cc2C)on1` [PLECONARIL], the CC50 in test [1] is above 20 µM. The MIC in [2], in test [3], in test [4], in [5], in test [6] and in [7] was above 20 µM each time. Moreover, the MIC in test [8] and in [9] was above 20 µM in each case.

`Cc1cccc(C)c1C(=O)Nc1nc(-c2ccccn2)cc2ccccc12`: in test [1], the CC50 was determined as 7.29 µM. Moreover, the MIC in [2], in [3], in [4], in test [5], in [6] and in [7] was above 20 µM each time. The MIC in [8] and in test [9] was above 20 µM in each case.

Consider `C[C@@H](O)[C@H](N)C(=O)NS(=O)(=O)c1cccc(-c2ccc3[nH]ncc3c2)c1`, for which the CC50 in test [1] was above 20 µM. Also, the MIC in test [2], in [3], in test [4], in test [5], in test [6] and in test [7] was above 20 µM in each case. Also, the MIC in [8] and in test [9] was above 20 µM throughout.

With `Cc1nc2ccc(Oc3ccccc3)cc2c2c1CCN2CCc1ccccc1`, the CC50 in test [1] was found to be 14.4 µM. Besides, the MIC in test [2] is above 20 µM; in test [3], 20 µM (≈ 7.61 µg/mL); in [4] it was above 20 µM; in test [5], above 20 µM; in test [6] it was above 20 µM; in test [7], above 20 µM. In addition, the MIC in [8] and in [9] was above 20 µM in each case.

Take `Clc1cccc(-c2nnc(-c3ccccc3)o2)c1`: in [1], the CC50 was above 20 µM. The MIC in test [2], in test [3], in test [4], in test [5], in test [6] and in test [7] was above 20 µM in each case. In addition, the MIC in test [8] and in test [9] was above 20 µM each time.

In the case of `O=c1nc(N2CCN(CC3CCCCC3)CC2)sc2c([N+](=O)[O-])cc(C(F)(F)F)cc12` [MACOZINONE], in test [1], the CC50 was above 20 µM. The MIC in test [2], in test [3], in [4], in test [5], in [6] and in test [7] was above 20 µM throughout. In addition, the MIC in test [8] and in [9] was above 20 µM in each case.

For `O[C@@](Cn1cnnn1)(c1ccc(F)cc1F)C(F)(F)c1ccc(-c2ccc(OCC(F)(F)F)cc2)cn1` [OTESECONAZOLE], the CC50 in test [1] is above 20 µM. The MIC was above 20 µM in [2]; above 20 µM in test [3]; 0.625 µM (≈ 0.33 µg/mL) in test [4]; above 20 µM in test [5]; above 20 µM in [6]; above 20 µM in test [7]. The results for the MIC in test [8] and in test [9] were above 20 µM and at most 0.156 µM, respectively.

Take `Nc1nnnn1CCOc1c2[nH]c3ccc(Cl)cc3c2cc2c1[nH]c1ccc(Cl)cc12`: the CC50 in test [1] came to 19.9 µM. Besides, the MIC in test [2], in [3], in test [4], in test [5], in [6] and in test [7] was above 20 µM in each case. Also, the MIC in [8] and in test [9] was above 20 µM each time.

With `CC(C)(C)c1cc(CCC(=O)N2CCC2)cc(C(C)(C)C)c1O`, the CC50 in test [1] was above 20 µM. The MIC in test [2], in test [3], in [4], in test [5], in [6] and in [7] was above 20 µM throughout. Besides, the MIC in [8] and in [9] was above 20 µM each time.

In the case of `COc1ccc(NS(=O)(=O)c2ccc(Cl)s2)cn1`, in [1], the cytotoxic concentration (CC50) is above 20 µM. For the same molecule, the MIC in test [2], in [3], in [4], in [5], in test [6] and in test [7] was above 20 µM each time. The MIC in test [8] and in [9] was above 20 µM each time.

In the case of `O=[N+]([O-])/C(Br)=C/c1ccc(Br)o1`, in [1], the CC50 is above 20 µM. The MIC was above 20 µM in test [2]; above 20 µM in test [3]; 20 µM (≈ 5.94 µg/mL) in test [4]; above 20 µM in [5]; above 20 µM in test [6]; above 20 µM in test [7]. The MIC in test [8] is above 20 µM; in test [9] it was 20 µM (≈ 5.94 µg/mL).

As for `NNC(=O)c1ccncc1` [ISONIAZID], in test [1], the CC50 was above 20 µM. Moreover, the MIC in test [2], in test [3], in [4], in [5], in test [6] and in test [7] was above 20 µM each time. Also, the MIC in [8] and in [9] was above 20 µM in each case.

For `O=S(=O)(NCB(O)O)c1ccc(-c2nnn[nH]2)cc1C(F)(F)F`, in test [1], the CC50 was above 20 µM. Further, the MIC in test [2], in test [3], in test [4], in test [5], in test [6] and in test [7] was above 20 µM in each case. In addition, the MIC in test [8] and in test [9] was above 20 µM throughout.

Regarding `C=CCc1cc(Cc2cnc(N)nc2N)cc(OC)c1O`, the CC50 in [1] is above 20 µM. Also, the MIC in test [2] is 2.5 µM (≈ 0.716 µg/mL); in test [3], 10 µM (≈ 2.86 µg/mL); in test [4] it was above 20 µM; in [5] it was 10 µM (≈ 2.86 µg/mL); in [6], 2.5 µM (≈ 0.716 µg/mL); in test [7] it was above 20 µM. Further, the MIC in [8] and in test [9] was above 20 µM in each case.

Regarding `Nc1nc(N)c2c(Sc3ccccc3)cccc2n1`, in test [1], the CC50 is 10.8 µM. The MIC in test [2], in [3], in test [4], in test [5], in test [6] and in test [7] was above 20 µM throughout. Moreover, the MIC in test [8] and in test [9] was above 20 µM throughout.
